Assay results as given in US20240082277A1, “MODIFIED ANTIHISTAMINE COMPOSITION AND ANTIVIRAL TREATMENT” (priority 2022, published 2024).
≈ marks a conversion by molar mass, not a printed value. Where a name gives a salt, the structure may show the parent alone. Read-outs that look alike come from different tables or passages of the source.

Key:
[1] = test system: SARS-CoV-2 Delta (B.1.617.2); experiment: microbe, parasite or virus in culture
[2] = test system: SARS-CoV-2 Omicron (B.1.1.529); experiment: microbe, parasite or virus in culture
[3] = test system: SARS-CoV-2 Delta (B.1.617.2)
[4] = molecular target: T1, human H1 histamine receptors (HRH1) (Homo sapiens, UniProt P35367); experiment: HRH1 antagonist calcium flux assay (Fluo-8, FLIPR TETRA) in CHO-K1 cells; format: cell-based
T1 construct: expressed in transfected cells; host or cells: CHO-K1
T1 sequence (P35367 whole entry): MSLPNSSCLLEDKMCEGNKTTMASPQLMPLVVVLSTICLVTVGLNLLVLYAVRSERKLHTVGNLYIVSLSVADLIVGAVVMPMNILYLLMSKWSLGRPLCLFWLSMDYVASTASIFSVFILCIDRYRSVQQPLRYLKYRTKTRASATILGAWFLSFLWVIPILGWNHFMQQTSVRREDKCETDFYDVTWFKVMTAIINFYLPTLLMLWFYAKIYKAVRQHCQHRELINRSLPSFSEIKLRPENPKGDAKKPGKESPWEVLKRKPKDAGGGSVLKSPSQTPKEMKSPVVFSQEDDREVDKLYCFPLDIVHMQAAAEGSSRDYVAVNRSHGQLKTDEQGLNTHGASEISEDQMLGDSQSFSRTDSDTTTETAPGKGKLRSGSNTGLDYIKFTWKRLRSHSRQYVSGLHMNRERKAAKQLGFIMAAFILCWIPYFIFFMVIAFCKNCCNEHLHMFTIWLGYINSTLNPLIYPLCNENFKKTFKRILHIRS

[5] = test system: SARS-CoV-2 Omicron (B.1.1.529)
in vitro = conditions: African green monkey, Cytotoxicity (CC50)
[6] = Severe acute respiratory syndrome coronavirus 2, VeroE6/TMPRSS2, read-out: % cell viability
[7] = CHO-K1, read-out: Normalized % Inhibition

CCC(CC)COC(=O)[C@H](C)N[P@](=O)(OC[C@H]1O[C@@](C#N)(c2ccc3c(N)ncnn23)[C@H](O)[C@@H]1O)Oc1ccccc1 [Remdesivir]
viability at 0.004 µg/mL [1, 6]: 105%
viability at 0.012 µg/mL [1, 6]: 91.3%
viability at 0.038 µg/mL [1, 6]: 96.8%
viability at 0.12 µg/mL [1, 6]: 105%
viability at 0.38 µg/mL [1, 6]: 101%
viability at 1.202 µg/mL [1, 6]: 89.8%
viability at 3.797 µg/mL [1, 6]: 36.8%
EC50 ([1]; Severe acute respiratory syndrome coronavirus 2, VeroE6/TMPRSS2, read-out: Efficacy (EC50) Delta): ~3 µg/mL (≈ 4.98 µM)
viability at 0.004 µg/mL [2, 6]: 101%
viability at 0.012 µg/mL [2, 6]: 95.9%
viability at 0.038 µg/mL [2, 6]: 106%
viability at 0.12 µg/mL [2, 6]: 105%
viability at 0.38 µg/mL [2, 6]: 92.8%
viability at 1.202 µg/mL [2, 6]: 84.1%
viability at 3.797 µg/mL [2, 6]: 44.6%
viability at 12 µg/mL [2, 6]: 20.7%
EC50 ([2]; Severe acute respiratory syndrome coronavirus 2, VeroE6/TMPRSS2, read-out: Efficacy (EC50) Omicron): ~3 µg/mL (≈ 4.98 µM)

CN(C)CCOC(c1ccccc1)c1ccccc1 [Diphenhydramine hydrochloride, reference compound]
Effect on percentage infection (in words) [3]: slight reduction in percentage infection was seen
Effect on percentage infection (in words) ([3]; Therapeutic treatment, Delta strain): slight reduction in percentage infection was seen

NCCc1c[nH]cn1 [Histamine]
RLU (maximum Relative Light Unit) [4]: 3431.5 RLU

O=C(O)COCCN1CCN(C(c2ccccc2)c2ccc(Cl)cc2)CC1 (stereo not shown) [Cetirizine Dihydrochloride]
inhibition at 0.01 µM [4, 7]: 23.9%
inhibition at 0.03 µM [4, 7]: 23.6%
inhibition at 0.1 µM [4, 7]: 15.3%
inhibition at 0.3 µM [4, 7]: 14.2%
inhibition at 1 µM [4, 7]: 31.3%
inhibition at 3 µM [4, 7]: 67.3%
inhibition at 10 µM [4, 7]: 98.9%
inhibition at 100 µM [4, 7]: 99.3%
inhibition at 30 µM ([4]; CHO-K1, 30000 nM, antagonist assay vs 70 nM histamine, read-out: Normalized % Inhibition): 100%

CN(C)CCO[Si](C)(c1ccccc1)c1ccccc1 [Q-Ant #8, N,N-dimethyl-2-((methyldiphenylsilyl)oxy)ethan-1-amine]
IC50 [4]: 0.0335 µM
inhibition at 1 µM [4, 7]: 97.7%
inhibition at 0.0003 µM ([4]; CHO-K1, 0.3 nM, antagonist assay vs 70 nM histamine, read-out: Normalized % Inhibition): -32.6%
inhibition at 0.001 µM ([4]; CHO-K1, 1 nM, antagonist assay vs 70 nM histamine, read-out: Normalized % Inhibition): -33.4%
inhibition at 0.003 µM ([4]; CHO-K1, 3 nM, antagonist assay vs 70 nM histamine, read-out: Normalized % Inhibition): -31%
inhibition at 0.01 µM ([4]; CHO-K1, 10 nM, antagonist assay vs 70 nM histamine, read-out: Normalized % Inhibition): -11.9%
inhibition at 0.03 µM ([4]; CHO-K1, 30 nM, antagonist assay vs 70 nM histamine, read-out: Normalized % Inhibition): 29.4%
inhibition at 0.1 µM ([4]; CHO-K1, 100 nM, antagonist assay vs 70 nM histamine, read-out: Normalized % Inhibition): 72.9%
inhibition at 0.3 µM ([4]; CHO-K1, 300 nM, antagonist assay vs 70 nM histamine, read-out: Normalized % Inhibition): 97.1%
Effect on percentage infection (in words) [5]: reduction in percentage infection was seen
Efficacy (EC50) Omicron [5]: 245.6 µg/mL
Selectivity index Omicron (CC50/EC50) ([5]; Therapeutic treatment): 1.69
CC50 (in vitro): 613 µg/mL (≈ 2150 µM)
Cytotoxicity (CC50) (Vero E6 TMPRSS2 cells; African green monkey): 415.3 µg/mL
Toxicity (in words) (Vero E6 TMPRSS2 cells; compared with traditional antihistamines): less toxic than traditional antihistamines
viability at 0.318 µg/mL [1, 6]: 102%
viability at 1.004 µg/mL [1, 6]: 93.9%
viability at 3.174 µg/mL [1, 6]: 95%
viability at 10.029 µg/mL [1, 6]: 100%
viability at 31.691 µg/mL [1, 6]: 99.4%
viability at 100.144 µg/mL [1, 6]: 98.2%
viability at 316.456 µg/mL [1, 6]: 73.5%
Effect on percentage infection (in words) [3]: No effect was seen
Efficacy (EC50) Delta [3]: 483.0 µg/mL
Selectivity index Delta (CC50/EC50) ([3]; Therapeutic treatment): 0.86
viability at 0.318 µg/mL [2, 6]: 105%
viability at 1.004 µg/mL [2, 6]: 91.3%
viability at 3.174 µg/mL [2, 6]: 96.8%
viability at 10.029 µg/mL [2, 6]: 105%
viability at 31.691 µg/mL [2, 6]: 101%
viability at 100.144 µg/mL [2, 6]: 89.8%
viability at 316.456 µg/mL [2, 6]: 36.8%
